According to the NIST ThermoML archive (doi:10.1016/j.tca.2019.178431):
± gives the expanded uncertainty stated by the source.

Legend:
[1] = Crystal; DTA
[2] = Molar enthalpy of transition or fusion; conditions: Crystal; DSC

- Normal melting temperature [1]: 143.00 ± 0.4 °C
- Molar enthalpy of transition or fusion [2]: 8.36 ± 0.203 kcal/mol
SMILES: Clc1ccccc1C(c1ccccc1)(c1ccccc1)n1ccnc1 [1-((2-chlorophenyl)diphenylmethyl)-1H-imidazole]
